In PMC7730438, “Generation of KS-58 as the first K-Ras(G12D)-inhibitory peptide presenting anti-cancer activity in vivo” (Scientific Reports, 2020):
Several values for one entry are separate records, joined by “and”; a condition that tells them apart may be missing. Equal entries are not always repeated. Starred links: 1 amine or outer side, 2 acyl side, 3 side chain; linkers in the order of their positions; H or OH if unused. Positions of bridges follow the written chain, without caps; N, C: chain ends. Non-standard residues stand in square brackets, D forms with d. Residues, ends and D or L forms follow the SMILES beside them. Phe(4-F) = N[C@@H](Cc1ccc(F)cc1)C(=O)O; X1 = CCCCCCC[C@H](N[*:1])C(=O)[*:2]; Nle = CCCC[C@H](N)C(=O)O; X2 = C(C[*:1])C[*:2]; βAla = NCCC(=O)O

Key:
[1] = tested on: phosphorylation of ERK in A427 cells; assay: Erk-phosphorylation assay (Phospho-ERK1/ERK2 ELISA); type: cell-based, human; conditions: A427, peptide 30 µM, n = 4, ± SEM
Method: (§1) A427 (ATCC HTB-53), A549 (ATCC CCL-185), H1975 (ATCC CRL-5908), PANC-1 (ATCC CRL-1469), MIA PaCa-2 (ATCC CRL-1420), and Capan-1 (ATCC HTB-79) cells were purchased from ATCC, and each cell was cultured in medium supplemented with 10% fetal bovine serum (FBS), according to the protocol recommended by the manufacture.
(§2) For evaluation of the effect of peptides on Ras–ERK pathways, phosphorylation of ERK was measured by Phospho-ERK1 (T202/Y204)/ERK2 (T185/Y187) DuoSet IC ELISA (DYC1018B-2, R&D SYSTEMS, MN, USA) according to the protocol supplied by the manufacturer. After 16 h serum starvation, cells were treated with peptides diluted in FBS-free medium for 1 h, and then treated with peptides diluted in FBS-containing medium for an additional 1 h. Phosphorylation rate of ERK (%) was calculated based on no serum stimulation as 0% and serum stimulation without peptide treatment as 100%.

[2] = tested on: phosphorylation of ERK in PANC-1 cells; assay: as above; type: cell-based, human; conditions: PANC-1, peptide 30 µM, n = 4, ± SEM
Method: as §1, §2

[3] = molecular target: T1, K-Ras(G12D)^GDP–SOS1 interaction (Homo sapiens, UniProt P01116, G12D); assay: Intracellular PPI inhibition assay using NanoBiT in HEK293T cells; type: cell-based; conditions: peptide 30 µM, n = 4
T1 construct: host or cells: HEK293T
Method: (§3) Intracellular protein–protein interaction (PPI) inhibition assays were carried out using the NanoBiT system (Promega). Three kinds of plasmids with CMV promoters, which encodes human K-Ras(G12D) fusing SmBiT to the N-terminus, encodes human SOS1 fusing LgBiT to the C-terminus, and encodes human BRAF fusing LgBiT to the C-terminus, were prepared by Promega. Each combination of plasmids was transfected to HEK293T cells by FuGENE HD Reagent (E2312, […]). After 30 h incubation at 37 °C under 5% CO2, the cells were recovered, and seeded to 96-well tissue culture white plate with 10% FBS containing DMEM, and incubated overnight. Peptides were added to the plate and incubated for another 2 h. Nano-Glo (Promega, N2011) was directly added to the plate, and luminescence was immediately monitored. Intracellular K-Ras(G12D)^GDP–SOS1 and K-Ras(G12D)^GTP–BRAF interactions (%) were calculated based on no peptide treatment as 100% and only transfection of plasmid encoding LgBiT fusion protein as 0%.

[4] = molecular target: T2, K-Ras(G12D)^GTP–BRAF interaction (Homo sapiens, UniProt P01116, G12D); assay: as above; type: cell-based; conditions: peptide 30 µM, n = 4
T2 construct: host or cells: HEK293T
Method: as §3

[5] = Stability of peptide in rat plasma (RP-HPLC); type: in vitro ADME
Method: The stability of KS-58 in rat plasma was also evaluated. The peptides were incubated with rat plasma at 37 °C for different time periods (0 and 24 h), and the remaining amount of peptide was then determined using RP-HPLC. By comparing the peak area of the peptide, the remaining amount of peptide after plasma incubation was roughly estimated.
Each peptide (10 mM, 1 μL) was incubated with rat plasma (20 μL) prepared in house. […] The mixture was stored for 10 min at 4 °C and centrifuged at 15,000 rpm for 10 min at 4 °C. The supernatant was recovered and was directly supplied to RP-HPLC to determine the remaining amount of unmodified peptides in the sample.

[6] = Pharmacokinetics study in mice, intravenous injection; type: in vivo
Method: Prior to the in vivo anti-cancer activity evaluation, a preliminary pharmacokinetics (PK) study was completed using a 20 mg/kg intravenous injection. Plasma was collected at 15 min, 1 h, 4 h, and 24 h after injection. […] KS-58 was detected in plasma 15 min and 1 h after intravenous injection, but it was not detected at 4 h and 24 h, due to the limited detection ability of RP-HPLC. The concentration change indicated a two-compartment model (Fig. 5A).
Animal experiments were carried out at UNITECH Co. Ltd. (Chiba, Japan) in accordance with the guidelines of the Animal Care and Use Committee of UNITECH (approval No. AGR IMF-190807A-30). KS-58 was dissolved in DMSO and then tenfold diluted by saline. The peptide solution was injected intravenously to Slc:ICR male mice (8 weeks old; Japan SLC, Inc.) (20 mg/kg, n = 3). Blood samples were collected from the mice at 15 min, 1 h, 4 h, and 24 h after injection. The blood was chilled on ice and then centrifuged at 12,000 rpm for 3 min at 4 °C. Plasma protein was precipitated by acetonitrile, and the supernatant was recovered. The remaining peptides in prepared samples were analyzed by RP-HPLC as described above.

[7] = tested on: PANC-1 subcutaneous xenografts; assay: Anti-cancer efficacy in PANC-1 subcutaneous xenografts; type: in vivo, mice; conditions: 40 mg/kg iv once every 2 days for 4 weeks
Method: Animal experiments were carried out at UNITECH Co. Ltd. in accordance with the guidelines of the Animal Care and Use Committee of UNITECH (approval No. AGR IMF-190807A-31, -33, AGR IMF-20615A-30). To establish subcutaneous xenograft tumor models, 1 × 10^7 cells/150 µL of PANC-1 cells were subcutaneously injected into the flank of Crlj:SHO-Prkdc^scidHr^hr female mice (7 weeks old; Charles River Laboratories). KS-58 was dissolved in DMSO and then tenfold diluted by saline. The peptide solution was injected intravenously to the mice bearing tumors once every 2 days for 4 weeks (40 mg/kg, n = 10). The tumor growth rate was recorded every 3 days by measuring the major and minor axes of the tumors formed with a digital caliper. Measurements were transformed into tumor volume using the formula: tumor volume (mm^3) = major axis × minor axis^2 × 0.5.

[8] = rat plasma, incubation time 0 h

Intracellular K-Ras(G12D)^GDP–SOS1 interaction (luminescence, %) [3]: 35.5%
Intracellular K-Ras(G12D)^GTP–BRAF interaction (luminescence, %) [4]: 53.8%
Peak area value ([5]; Input (NT, no-serum treatment)): 491,842
recovery ([5]; input control without serum treatment, Input (NT, no-serum treatment), read-out: Recovery rate (%)): 100%
Stability in rat plasma (in words) ([5]; rat plasma, 37 °C, 24 h): remained intact for up to at least 24 h
Peak area value ([5]; rat plasma, 37 °C, incubation time 24 h): 467,142
recovery at 24 h, 0.476 mM ([5]; rat plasma, 37 °C, incubation time 24 h, read-out: Recovery rate (%)): 95%
remaining at 24 h, 0.476 mM ([5]; rat plasma, 37 °C, incubation time 24 h, read-out: Residual rate (%)): 98.6%
Peak area value [5, 8]: 473,575
Residual rate (%) [5, 8]: 100%
recovery at 0 h, 0.476 mM ([5]; rat plasma, incubation time 0 h, read-out: Recovery rate (%)): 96.3%
Detection in plasma by RP-HPLC ([6]; 20 mg/kg iv, 15 min and 1 h after injection): detected
Detection in plasma by RP-HPLC ([6]; 20 mg/kg iv, 4 h and 24 h after injection): not detected
peptide concentration in the blood ([6]; 20 mg/kg iv, for at least 1 h after the injection): more than 30 μM
half-life ([6]; male, Slc:ICR, mouse, plasma, 20 mg/kg intravenous injection, n = 3, read-out: blood circulation half-life (t1/2) in the elimination phase): 1 ± 0.0317 h
SMILES: CCCCCCC[C@@H]1NC(=O)[C@@H]2CSCCCSC[C@@H](NC(=O)[C@H](Cc3c[nH]c4ccccc34)NC(=O)[C@@H]3CCCN3C(=O)[C@H](CC(=O)O)NC(=O)[C@H](Cc3ccc(F)cc3)NC(=O)[C@H](CO)NC1=O)C(=O)NCCC(=O)N1CCC[C@H]1C(=O)N[C@@H](CCCC)C(=O)N2 [KS-58, c[βAla-Pro-Nle-c(Cys-Anon-Ser-4fF-Asp-Pro-Trp-^DCys)]] (cyclo([βAla]P[Nle]C[X1]S[Phe(4-F)]DPW[dC]); linker 4-11 via X2)
pERK (%) [1]: 26.0% and 26.0 ± 6.0%
pERK (%) [2]: 57.6% and 57.6 ± 7.6%
Tumor growth (tumor volume) in subcutaneous xenografts [7]: significant tumor growth suppression
